Assay results as given in ChEMBL document CHEMBL5236615, “Discovery of Novel N-Heterocyclic-Fused Deoxypodophyllotoxin Analogues as Tubulin Polymerization Inhibitors Targeting the Colchicine-Binding Site for Cancer Treatment” (J Med Chem, 2022).
Activity calls are given as the source filed them. The calls are words filed in the database; no cut-off is given here.

What was measured:
K562 = test: cells; details: Homo sapiens, K562, 72 h
Description: Antiproliferative activity against human K562 cells measured after 72 hrs by MTT assay

HCT-116 = test: Antiproliferative activity against human HCT-116 cells measured after 72 hrs by MTT assay; type: functional, cell-based; details: HCT-116, 72 h
MCF7 = test: cells; details: Homo sapiens, MCF7, 72 h
Description: Antiproliferative activity against human MCF7 cells measured after 72 hrs by MTT assay

HT-29 = test: Antiproliferative activity against human HT-29 cells measured after 72 hrs by MTT assay; type: functional, cell-based; details: HT-29, 72 h
[1] = Toxicity in Balb/c mouse assessed as pathological changes in blood aspartate aminotransferase level at 10 mg/kg, ip administered for every 2 days for 14 days; type: organism-based; details: in vivo, 336 h, time 14 day
[2] = Antiproliferative activity against paclitaxel-resistant human A549/TxR cells measured after 72 hrs by MTT assay; type: functional, cell-based
[3] = Toxicity in Balb/c mouse assessed as pathological changes in blood alanine aminotransferase level at 10 mg/kg, ip administered for every 2 days for 14 days; type: organism-based; details: in vivo, 336 h, time 14 day
[4] = Antitumor activity against paclitaxel-resistant human MCF7/TxR cells xenografted in Balb/c mouse assessed as tumor growth inhibition at 10 mg/kg, ip administered for every 2 days for 21 days; type: functional; details: 504 h, time 21 day, read-out: TGI
[5] = Antiproliferative activity against paclitaxel-resistant human MCF7/TxR cells measured after 72 hrs by MTT assay; type: functional, cell-based
[6] = Metabolic stability in human liver microsomes assessed as intrinsic clearance at 1 uM by LC/MS analysis; type: ADME, Microsome; details: read-out: CLH
[7] = Metabolic stability in human liver microsomes assessed as half life at 1 uM by LC/MS analysis; type: ADME, Microsome
Tubulin (Homo sapiens) = Tubulin (Homo sapiens) (UniProt P68371+Q9H4B7+P0DPH7+P68366+Q13509+Q71U36+P04350+Q3ZCM7+P07437+P68363+Q9BQE3+Q6PEY2+Q13885+Q9BVA1+Q9BUF5); test: Disruption of microtubule network in human MCF7 cells assessed as broken microtubule filaments at 20 nM measured after 6 hrs by immunofluorescence assay; type: cell-based
[8] = biological target: Tubulin beta (Homo sapiens) (UniProt P68371+Q9H4B7+Q13509+P04350+Q3ZCM7+P07437+Q13885+Q9BVA1+Q9BUF5+A6NNZ2); test: Binding affinity to beta-tubulin colchicine binding site in human MCF-7 cells assessed as inhibition of EBI-beta-tubulin adduct band formation preincubated for 2 hrs followed by EBI addition and measured after 1.5 hrs by EBI competition based Western blotting analysis; type: cell-based; details: MCF7, dose 0.2-25 µM, time 3.5 hrs

Structure (SMILES) | IC50 (K562) | IC50 (HCT-116) | IC50 (MCF7) | IC50 (HT-29) | also measured
COc1cc([C@@H]2c3cc4c(cc3C[C@H]3COC(=O)N32)OCCO4)cc(OC)c1Br | 39.5 nM | 103 nM | 37.5 nM | 48.4 nM | –
CC(=O)O[C@H]1C(=O)[C@@]2(C)[C@H]([C@H](OC(=O)c3ccccc3)[C@]3(O)C[C@H](OC(=O)[C@H](O)[C@@H](NC(=O)c4ccccc4)c4ccccc4)C(C)=C1C3(C)C)[C@]1(OC(C)=O)CO[C@@H]1C[C@@H]2O [PACLITAXEL] | 29.6 nM | 62.9 nM | 19.7 nM | 10.8 nM | Activity [1]: Toxic; IC50 [2]: 1670 nM; Activity [3]: Toxic; inhibition in vivo at 10 mg/kg [4]: 28.6%; IC50 [5]: 2750 nM
COc1c(Cl)cc([C@@H]2c3cc4c(cc3C[C@H]3COC(=O)N32)OCCO4)cc1Cl | 6.3 nM | 5.8 nM | 5.9 nM | 6 nM | CLint scaled at 1 µM [6]: 589 mL/min/kg; half-life at 1 µM [7]: 2.95 min
COc1cc([C@@H]2c3cc4c(cc3C[C@H]3COC(=O)N32)OCO4)cc2c1OCO2 | 72.3 nM | 56.6 nM | 149 nM | 212 nM | –
COc1cc([C@@H]2c3cc4c(cc3C[C@H]3COC(=O)N32)OCCCO4)cc(OC)c1OC | 107 nM | 119 nM | 58.8 nM | 81.9 nM | –
COc1cc([C@@H]2c3cc4c(cc3C[C@H]3C(=O)NCC(=O)N23)OCO4)cc(OC)c1OC | 789 nM | 1240 nM | 2330 nM | 1920 nM | –
CCN1C(=O)[C@@H]2Cc3cc4c(cc3[C@@H](c3cc(OC)c(OC)c(OC)c3)N2C1=S)OCO4 | > 5000 nM | > 5000 nM | > 5000 nM | > 5000 nM | –
COc1ccc([C@@H]2c3cc4c(cc3C[C@H]3COC(=O)N32)OCO4)cc1OC | 593 nM | > 5000 nM | > 5000 nM | 755 nM | –
COc1cc([C@@H]2c3cc4c(cc3C[C@H]3C(=O)NCC(=O)N23)OCCO4)cc(OC)c1OC | 785 nM | 3120 nM | 1560 nM | 749 nM | –
COc1ccc(/C=C\c2cc(OC)c(OC)c(OC)c2)cc1O [COMBRETASTATIN A4] | 11.2 nM | 6.8 nM | 5.9 nM | 391 nM | IC50 [2]: 49.9 nM; Activity (Tubulin (Homo sapiens)): Active; IC50 [5]: 15.4 nM; Activity [8]: Dose-Dependent Effect
CCCN1CC(=O)N2[C@H](c3cc(OC)c(OC)c(OC)c3)c3cc4c(cc3C[C@H]2C1=O)OCO4 | > 5000 nM | > 5000 nM | > 5000 nM | > 5000 nM | –
CCN1C(=O)[C@@H]2Cc3cc4c(cc3[C@@H](c3cc(OC)c(OC)c(OC)c3)N2C1=O)OCO4 | > 5000 nM | > 5000 nM | > 5000 nM | > 5000 nM | –
CCN1C(=O)[C@@H]2Cc3cc4c(cc3[C@@H](c3cc(OC)c(OC)c(OC)c3)N2C1=O)OCCO4 | > 5000 nM | > 5000 nM | > 5000 nM | > 5000 nM | –
COc1cc([C@@H]2c3cc4c(cc3C[C@H]3C(=O)NC(=O)N23)OCCO4)cc(F)c1OC | 29.5 nM | 20.1 nM | 21.9 nM | 26.3 nM | –
COc1cc([C@@H]2c3cc4c(cc3C[C@H]3C(=O)NC(=O)N23)OCCO4)cc([N+](=O)[O-])c1OC | 53.4 nM | 31.6 nM | 40.7 nM | 49.9 nM | –
COc1cc([C@@H]2c3cc4c(cc3C[C@H]3COC(=O)N32)OCO4)cc(OC)c1O | > 5000 nM | > 5000 nM | > 5000 nM | > 5000 nM | –
O=C1NC(=O)N2[C@H](c3cc(Cl)nc(Cl)c3)c3cc4c(cc3C[C@@H]12)OCCO4 | 424 nM | 533 nM | 400 nM | 357 nM | –
COc1cc2c(cc1OC)[C@@H](c1cc(OC)c(OC)c(OC)c1)N1C(=O)OC[C@@H]1C2 | > 5000 nM | > 5000 nM | > 5000 nM | > 5000 nM | –
COc1cc([C@@H]2c3cc4c(cc3C[C@H]3COC(=O)N32)OCO4)ccn1 | > 5000 nM | > 5000 nM | > 5000 nM | > 5000 nM | –
COc1cc([C@@H]2c3cc4c(cc3C[C@H]3C(=O)NC(=O)N23)OCCO4)cc(OC)c1OC | 31.9 nM | 27.2 nM | 16.9 nM | 21.4 nM | CLint scaled at 1 µM [6]: 81.2 mL/min/kg; half-life at 1 µM [7]: 21.4 min

Structure (SMILES) | IC50 (K562) | IC50 (HCT-116) | IC50 (MCF7) | IC50 (HT-29) | also measured
O=C1NC(=O)N2[C@H](c3cc(Cl)c(F)c(Cl)c3)c3cc4c(cc3C[C@@H]12)OCCO4 | 49 nM | 22.9 nM | 48.8 nM | 23.2 nM | CLint scaled at 1 µM [6]: 121 mL/min/kg; half-life at 1 µM [7]: 14.4 min
COc1cc([C@@H]2c3cc4c(cc3C[C@H]3C(=O)N(C)C(=S)N23)OCCO4)cc(OC)c1OC | > 5000 nM | > 5000 nM | > 5000 nM | > 5000 nM | –
COc1cc([C@@H]2c3cc4c(cc3C[C@H]3COC(=O)N32)OCCO4)cc(F)c1OC | 13.4 nM | 10.1 nM | 11.4 nM | 18.2 nM | –
COc1cc([C@@H]2c3cc4c(cc3C[C@H]3C(=O)N(C)C(=S)N23)OCO4)cc(OC)c1OC | > 5000 nM | > 5000 nM | > 5000 nM | > 5000 nM | –
COc1cc([C@@H]2c3cc4c(cc3C[C@H]3COC(=O)N32)OCO4)cc(OC)c1OC | 20 nM | 16.6 nM | 33.6 nM | 26.7 nM | –
O=C1OC[C@@H]2Cc3cc4c(cc3[C@@H](c3cc(C(F)(F)F)cc(C(F)(F)F)c3)N12)OCCO4 | 202 nM | 312 nM | 100 nM | 56.8 nM | –
COc1cc([C@@H]2c3cc4c(cc3C[C@H]3COC(=O)N32)OCCO4)cc(OC)c1OC | 17.1 nM | 6.8 nM | 17.3 nM | 14.9 nM | CLint scaled at 1 µM [6]: 794 mL/min/kg; half-life at 1 µM [7]: 2.19 min
COc1cc([C@@H]2c3cc4c(cc3C[C@H]3COC(=O)[C@@H]32)OCO4)cc(OC)c1OC [DESOXYPODOPHYLLOTOXIN] | 16 nM | 14.5 nM | 6 nM | 16.6 nM | CLint scaled at 1 µM [6]: 1440 mL/min/kg; half-life at 1 µM [7]: 1.12 min
COc1c(Br)cc([C@H]2c3cc4c(cc3C[C@H]3C(=O)NC(=O)N23)OCCO4)cc1Br | > 5000 nM | > 5000 nM | > 5000 nM | > 5000 nM | –
COc1c(Br)cc([C@@H]2c3cc4c(cc3C[C@H]3COC(=O)N32)OCCO4)cc1Br | 6.7 nM | 3.3 nM | 4.3 nM | 2.4 nM | CLint scaled at 1 µM [6]: 1370 mL/min/kg; half-life at 1 µM [7]: 1.27 min
O=C1OC[C@@H]2Cc3cc4c(cc3[C@@H](c3ccc(OC(F)F)c(OC(F)F)c3)N12)OCCO4 | 316 nM | 918 nM | 265 nM | 74.8 nM | –
COc1cc([C@@H]2c3cc4c(cc3C[C@H]3COC(=O)N32)OCCO4)ccc1F | 154 nM | 273 nM | 376 nM | 63.4 nM | –
CCN1C(=O)[C@@H]2Cc3cc4c(cc3[C@@H](c3cc(OC)c(OC)c(OC)c3)N2C1=S)OCCO4 | > 5000 nM | > 5000 nM | > 5000 nM | > 5000 nM | –
COc1cc([C@@H]2c3cc4c(cc3C[C@H]3C(=O)NC(=O)N23)OCCO4)cc2c1OCO2 | 91.7 nM | 46.9 nM | 36.2 nM | 74.8 nM | –
O=C1OC[C@@H]2Cc3cc4c(cc3[C@@H](c3ccncc3)N12)OCO4 | > 5000 nM | > 5000 nM | > 5000 nM | > 5000 nM | –
COc1cc([C@@H]2c3cc4c(cc3C[C@H]3COC(=O)N32)OCCO4)cc2c1OCO2 | 29.6 nM | 50.9 nM | 35.4 nM | 44.3 nM | –
COc1cc([C@@H]2c3cc4c(cc3C[C@H]3C(=O)NC(=O)N23)OCO4)cc(OC)c1OC | 44.9 nM | 64.3 nM | 125 nM | 49.1 nM | –
COc1cc([C@@H]2c3cc4c(cc3C[C@H]3COC(=O)N32)OCCCO4)cc2c1OCO2 | 193 nM | 137 nM | 965 nM | 611 nM | –
CCCN1CC(=O)N2[C@H](c3cc(OC)c(OC)c(OC)c3)c3cc4c(cc3C[C@H]2C1=O)OCCO4 | > 5000 nM | > 5000 nM | > 5000 nM | > 5000 nM | –
